Experimental data from paper PMC11224403, “Des-acyl ghrelin reduces alcohol intake and alcohol-induced reward in rodents” (Translational Psychiatry, 2024).
No end group written: not given here.

Legend:
[1] = tested on: CB1 receptor; experiment: Aquoscreen receptor activity assay, CB1; assay type: cell-based, human; conditions: 60 µM JWH-018, also at 7.5 µM; luminescence
[2] = tested on: dopamine in NAc shell; experiment: In vivo microdialysis, dopamine release in NAc shell; parameters: species or system Wistar rats; conditions: male rats (methods), alcohol 2 g/kg IP, n = 8 per group
Text: Male and female Rcc Han Wistar rats (8–12 weeks old at arrival; Envigo, Horst, Netherlands) were used for the alcohol drinking and locomotor activity experiments as they drink alcohol to intoxicating levels. For in vivo microdialysis studies male Wistar rats (Charles River, Calco, Italy) were used as they display robust dopamine levels in NAc shell after alcohol injection. […] All rodents were allowed to habituate to the animal facility at least one week before they entered an experiment. […] The sample sizes of each experiment were based on previous experience in which statistical significance has been detected. The person who conducted the experiments, and analyzed the collected data was aware of the treatment allocation. Only preset exclusion criteria were used when analyzing the data obtained in attempts to exclude confounding factors in analyzing data. In the alcohol drinking experiments leaking bottles and low alcohol consumption (<3.0 g/kg for males; <3.5 g/kg for females) were preset exclusion criteria. The preset exclusion criterion in the ex vivo HPLC-EC, ELISA, and recombinant cell line experiments was contamination of the sample. Misplaced probes, technical difficulties, and damages to the surgery area were preset exclusion criteria for the in vivo microdialysis experiment. Intra-cage male aggression was the preset exclusion criterion for the locomotor activity and CPP experiments. To minimize tentative confounding factors, the order of treatments was stratified, with treatments being mixed for each animal cage and for each apparatus used as well as balancing the alcohol intake between future treatment groups. […]
The data from drinking experiments were analyzed by unpaired t-test or repeated two-way ANOVA. A two-tailed unpaired t-test analyzed the ELISA, ex vivo HPLC-EC, and cFOS data. […] A one-way ANOVA with Bonferroni post hoc tests and unpaired t-test analyzed the locomotor activity and CPP data, respectively. The in vivo microdialysis experiments were evaluated by a repeated two-way ANOVA followed by the Bonferroni post hoc test.

[3] = tested on: male mice; experiment: Locomotor activity test, alcohol-induced stimulation and DAG per se, mice; assay type: in vivo, NMRI mice
Text: Male and female Rcc Han Wistar rats (8–12 weeks old at arrival; Envigo, Horst, Netherlands) were used for the alcohol drinking and locomotor activity experiments as they drink alcohol to intoxicating levels. For in vivo microdialysis studies male Wistar rats (Charles River, Calco, Italy) were used as they display robust dopamine levels in NAc shell after alcohol injection. […] All rodents were allowed to habituate to the animal facility at least one week before they entered an experiment. […] The sample sizes of each experiment were based on previous experience in which statistical significance has been detected. The person who conducted the experiments, and analyzed the collected data was aware of the treatment allocation. Only preset exclusion criteria were used when analyzing the data obtained in attempts to exclude confounding factors in analyzing data. In the alcohol drinking experiments leaking bottles and low alcohol consumption (<3.0 g/kg for males; <3.5 g/kg for females) were preset exclusion criteria. The preset exclusion criterion in the ex vivo HPLC-EC, ELISA, and recombinant cell line experiments was contamination of the sample. Misplaced probes, technical difficulties, and damages to the surgery area were preset exclusion criteria for the in vivo microdialysis experiment. Intra-cage male aggression was the preset exclusion criterion for the locomotor activity and CPP experiments. To minimize tentative confounding factors, the order of treatments was stratified, with treatments being mixed for each animal cage and for each apparatus used as well as balancing the alcohol intake between future treatment groups.
Alcohol was in the behavioral and neurochemical tests injected (intraperitoneally, IP) 5 min before the test.
Locomotor activity tests were conducted in ventilated and dim-lit (4 lux) open field arenas (420 × 420 × 200 mm; Med Associates Inc; Georgia, Vermont, USA). Infra-red beams detected distance traveled, number of jumps, vertical counts, average velocity, stereotypic counts, number of inner zone entries, and time spent in the inner/outer zones of each animal.
In the first test, after 60 min of habituation, male (n = 24) or female (n = 24) rats were injected with vehicle or DAG (0.5, 1.0, or 2.0 mg/kg). 15 min later the activity was monitored for another 60 min. In the second locomotor activity experiment, male mice (n = 32) were allowed to habituate for 60 min. After that, they were injected with vehicle or DAG (0.25, 0.5, or 1.0 mg/kg). After 15 min the activity was monitored for another 60 min.
Therefore, male mice were (n = 32) injected with DAG (1.0 mg/kg) or vehicle 15 min before alcohol or vehicle. The activity registration started 5 min later and was recorded for an additional 60 min. Identical locomotor activity experiments were conducted in new male mice (n = 32), where a lower dose of DAG (0.5 mg/kg) was combined with alcohol.
The data from drinking experiments were analyzed by unpaired t-test or repeated two-way ANOVA. A two-tailed unpaired t-test analyzed the ELISA, ex vivo HPLC-EC, and cFOS data. In addition, the Pearson test correlated the serum levels and the mean values of alcohol intake in rats. A one-way ANOVA with Bonferroni post hoc tests and unpaired t-test analyzed the locomotor activity and CPP data, respectively. The in vivo microdialysis experiments were evaluated by a repeated two-way ANOVA followed by the Bonferroni post hoc test.

[4] = tested on: human transporter of dopamine (DAT); experiment: Transporter inhibition in recombinant cell line (neurotransmitter transporter uptake assay), DAT; assay type: cell-based; conditions: cocaine at such concentration (12.5 µM and 6.25 µM); CHO-K1 cells, 3 h, fluorescence
[5] = tested on: NET; experiment: Transporter inhibition in recombinant cell line, NET; assay type: cell-based, human; conditions: cocaine at 12.5 µM and 6.25 µM (top concentration 50 µM); 3 h, fluorescence
[6] = tested on: SERT; experiment: Transporter inhibition in recombinant cell line, SERT; assay type: cell-based, human; conditions: cocaine at 12.5 µM and 6.25 µM (top concentration 50 µM); 3 h, fluorescence
[7] = tested on: high alcohol-consuming mice; conditions: central infusion, ref [47]; cited from earlier work
[8] = tested on: memory function via hippocampal mechanisms; conditions: ref [50], [51]; cited from earlier work
[9] = tested on: alcohol-related responses; conditions: preclinical and clinical studies, ref [6–18]; cited from earlier work
Text: Alcohol use disorder (AUD) is a major public health problem with high morbidity and mortality. Its development is complex and the dopaminergic neurons from the ventral tegmental area (VTA) to the nucleus accumbens (NAc) have gained extra interest as they mediate alcohol-induced reward (for review see [2, 3]). Various biological systems participate in the ability of alcohol to interact with these dopamine neurons, and gut-brain peptides have been implied as important modulators (for review see [4]). One of these peptides is ghrelin (i.e., acyl-ghrelin, the acylated form of ghrelin [ ...

Question: For `CCCCCn1cc(C(=O)c2cccc3ccccc23)c2ccccc21` [JWH-018], which “effect on target receptor CB1” value [1] is on record?
Answer: full target receptor inhibition

Question: With `CCO` [alcohol] as the compound, how does the “dopamine in NAc shell, alcohol vs vehicle” value [2] read?
Answer: elevated dopamine in NAc shell (80 min P < 0.001, 160 min P = 0.0011, 180 min P = 0.0037, 200 min P < 0.0001)

Question: And the “locomotor stimulation by alcohol” value ([3]; alcohol 1.75 g/kg IP (experiment with DAG 0.5 mg/kg))?
Answer: hyperlocomotion after alcohol (P = 0.0225)

Question: And the “locomotor stimulation by alcohol” value ([3]; alcohol 1.75 g/kg IP vs vehicle, n = 8 per group (experiment with DAG 1 mg/kg))?
Answer: caused a locomotor simulation (P = 0.0136)

Question: Which “inhibition of DAT, share of full transporter inhibition” value [4] does the source give for `COC(=O)[C@H]1[C@@H](OC(=O)c2ccccc2)C[C@@H]2CC[C@H]1N2C` [cocaine] here?
Answer: 70–80%

Question: And the “inhibition of NET” value [5]?
Answer: full NET and SERT inhibition at 12.5 µM and 6.25 µM

Question: And the “inhibition of SERT” value [6]?
Answer: full NET and SERT inhibition at 12.5 µM and 6.25 µM

Question: With “LEAP2: recently discovered inverse GHSR agonist (MTPFWRGVSLRPIGASCRDDSECITRLCRKRRCSLSVAQE; ends and bridges not checked; cysteine pairing not given here; UniProt Q969E1 38-77, looked up)” as the compound, how does the alcohol intake [7] read?
Answer: reduces alcohol intake in high alcohol-consuming mice after its central infusion

Question: Which results are given for “ghrelin (GSSFLSPEHQRVQQRKESKKPPAKLQPR; ends and bridges not checked; also: octanoylated, position not given here; UniProt Q9UBU3 24-51, looked up) [orexigenic peptide, the acylated form of ghrelin]”?
Answer: memory function [8]: enhance memory function via hippocampal mechanisms; alcohol-related responses [9]: enhances
